Test results published in article PMC8490515, “Neuromedin B receptor stimulation of Cav3.2 T-type Ca^2+ channels in primary sensory neurons mediates peripheral pain hypersensitivity” (Theranostics, 2021).
“Also recorded” adds a separate entry of the source.

Key:
[1] = system: Nmb-induced mechanical hypersensitivity in mice; test: Nmb-induced mechanical hypersensitivity, effect of pretreatment (Figure 7C); type: in vivo, mouse; conditions: intra-TG TTA-P2 1 nmol prior to 1 nmol Nmb; 1 h; n = 8 - 10
Description: Mice were housed on a 12 h light/dark cycle, maintained in a humidity- and temperature-controlled room with water available ad libitum and were acclimated to the experimenter for 2 d before the first behavioural observations. Experimenters were blinded to the treatment or genotypes of the mice. As described previously, [31], an Orofacial Stimulation Test (Ugo Basile, Italy) was used for the measurement of hypersensitivity to the mechanical stimulation of the trigeminal area. Briefly, the mice initially underwent one week of adaptation trainings after a 12 h fasting food period. Each mouse was then placed in a cage in which there was an Orofacial Stimulation Test system. […] The contact number and total duration of time the mouse spent acquiring the reward were analyzed with the ORO software.
For experiments that several time points are needed to be checked in 24 h, von Frey test was used, as orofacial stimulation test can be checked only once a day, [32]. […] Mechanical hypersensitivity was assessed as described in previous studies, [33]. In brief, the threshold was assessed with a set of von Frey hairs (0.02-2.56 g, Stoelting) applied to the whisker pad in an ascending series of trials, with three separate von Frey stimulations applied per series. The threshold was determined when mice moved their heads away briskly and strongly from at least one of the three stimuli. […]

[2] = system: CFA-induced mechanical allodynia in mice; test: CFA-induced inflammatory pain, mechanical allodynia; type: in vivo, mouse; conditions: rofecoxib 10 mg/kg (legend: 1 mg/kg, subcutaneous); 1 h; 2 d after CFA; n = 7 - 9
Description: For experiments that several time points are needed to be checked in 24 h, von Frey test was used, as orofacial stimulation test can be checked only once a day, [32]. For the von Frey test, the mice were placed in metal mesh boxes and allowed 30 min for habituation before examination. Mechanical hypersensitivity was assessed as described in previous studies, [33]. In brief, the threshold was assessed with a set of von Frey hairs (0.02-2.56 g, Stoelting) applied to the whisker pad in an ascending series of trials, with three separate von Frey stimulations applied per series. The threshold was determined when mice moved their heads away briskly and strongly from at least one of the three stimuli. Dixon's up-down method was used to determine the 50% probability of escape threshold. For thermal test, a heat stimulus was applied to the maxillary whisker pad skin by radiant heat (IITC Life Science). Heat sensitivity was expressed as head-withdrawal latency (HWL). The radiant heat intensity was adjusted so that basal HWL is between 10-15 s, with a cut-off of 18 s to prevent tissue damage. Chronic inflammatory pain was induced by subcutaneous injection of 20 μL of complete Freund's adjuvant (CFA) into the left side of the buccal pad. […]

[3] = target: Human neuromedin B receptor expressed in HEK293 cells (human) (UniProt P28336)
Sequence of Human neuromedin B receptor expressed in HEK293 cells (human) (P28336 whole entry): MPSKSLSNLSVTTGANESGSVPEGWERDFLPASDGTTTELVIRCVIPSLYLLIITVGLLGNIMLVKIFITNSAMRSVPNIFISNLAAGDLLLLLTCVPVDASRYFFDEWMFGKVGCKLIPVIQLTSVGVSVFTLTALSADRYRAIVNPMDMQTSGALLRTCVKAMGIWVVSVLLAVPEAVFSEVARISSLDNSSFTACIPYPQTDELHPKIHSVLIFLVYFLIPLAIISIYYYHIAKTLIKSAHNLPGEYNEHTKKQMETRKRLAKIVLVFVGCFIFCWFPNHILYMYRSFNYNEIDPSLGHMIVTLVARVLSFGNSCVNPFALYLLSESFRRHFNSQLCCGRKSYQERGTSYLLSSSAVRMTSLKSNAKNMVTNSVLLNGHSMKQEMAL

With `CC1(C)C[C@@H](CN2CCC(F)(CNC(=O)c3cc(Cl)cc(Cl)c3)CC2)CCO1` [TTA-P2] the “effect on Nmb-induced mechanical hypersensitivity” value [1] was “significantly attenuated mechanical hypersensitivity”.
In the case of `CS(=O)(=O)c1ccc(C2=C(c3ccccc3)C(=O)OC2)cc1` [rofecoxib], the CFA-induced mechanical allodynia [2] is reported as “reversed; also recorded: reduced the mechanical allodynia”.
Neuromedin B (peptide) gave an increase of Cav3.2 channel currents in HEK293 cells co-expressing human NmbR and Cav3.2, whole-cell patch clamp, dose-response of Nmb, EC50 [3] of 47.6 nM.
